Patent US11207285B2, “Diabetes treatment regimens using alpha, alpha-substituted long-chain amphipathic carboxylates” (SYNDROMEX LTD., priority 2016, dated 2021)

What was measured:
rats = conditions: WO98/30530, cited from earlier work
[1] = 4-week M16αα study in T2D patients, trough plasma levels; assay type: in vivo, human; conditions: Cohort 1 patients, 40 mg once daily oral, 28-day dosing period
Method: Pre-dose blood samples to determine trough levels of M16αα were collected in lithium heparin tubes at the following dosing days: 1, 8, 15, 28, and EOS visit. Plasma M16αα concentrations have been presently processed for Cohort 1 patients only. […] Calculated PK parameters: Pre-dose Css.
Plasma concentrations of M16αα are determined by a validated LC/MS method. The lower and upper limits of quantitation for M16αα concentrations are 100 ng/mL and 5000 ng/mL, respectively. The assay is linear from 0.1-5 μg/mL. Dilution extends the range to 100 μg/mL

[2] = molecular target: mammalian target of rapamycin (mTORC1) (Homo sapiens, UniProt P42345); test: modulation of mTORC1 activity
[3] = system: animal models for T2D (e.g., rodents maintained on high-fat diet); test: insulin sensitization, glucose lowering and energy expenditure in animal models for T2D; assay type: in vivo
[4] = system: animal models for T2D (e.g., db/db rats, rodents maintained on high-fat diet); test: as above; assay type: in vivo
half-life in dogs = conditions: dog, in vivo, read-out: half-life (T1/2) (converted)
Source text: (§1) The half-life (T1/2) of Medica compounds in humans differs considerably from their half-life in model animals. […] This difference in half-life could not be expected, and is of considerable significance when designing a new treatment protocol for humans.

[5] = system: cultured human HepG2 liver cells; test: inhibition of lipoprotein production in HepG2 cells; assay type: cell-based
[6] = system: Sterol response element binding protein 1 & 2 (SREBP); test: transcriptional activity of SREBP
[7] = system: AMP-activated protein kinase (AMPK); test: modulation of AMPK activity
[8] = system: mitochondrial permeability transition pore (PTP); test: gating of mitochondrial PTP; conditions: mild decoupling of mitochondrial oxidative phosphorylation
Forkhead box O1 (FoxO1) = Forkhead box O1 (FoxO1) (Homo sapiens, UniProt Q12778); test: transcriptional activity of FoxO1
[9] = molecular target: T1, Hepatocyte nuclear factor 4-alpha (HNF4α) (Homo sapiens, UniProt P41235); test: transcriptional activity of HNF4α
T1 sequence (P41235 1-474): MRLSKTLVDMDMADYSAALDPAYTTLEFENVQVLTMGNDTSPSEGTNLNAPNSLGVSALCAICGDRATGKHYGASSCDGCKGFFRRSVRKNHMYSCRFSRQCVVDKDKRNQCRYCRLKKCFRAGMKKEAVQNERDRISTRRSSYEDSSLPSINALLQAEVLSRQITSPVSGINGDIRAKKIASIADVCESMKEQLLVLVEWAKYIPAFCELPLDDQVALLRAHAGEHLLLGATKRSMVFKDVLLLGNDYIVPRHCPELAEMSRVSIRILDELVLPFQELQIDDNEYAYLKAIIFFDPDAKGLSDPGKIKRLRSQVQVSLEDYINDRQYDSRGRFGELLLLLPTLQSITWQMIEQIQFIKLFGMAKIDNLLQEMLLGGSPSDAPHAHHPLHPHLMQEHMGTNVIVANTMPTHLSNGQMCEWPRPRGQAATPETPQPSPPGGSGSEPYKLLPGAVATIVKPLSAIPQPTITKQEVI

half-life in rats = conditions: rat, in vivo, read-out: half-life (T1/2) (converted)
Source text: as §1

Chain of Forkhead box O1 (FoxO1) (Q12778 whole entry, species assumed): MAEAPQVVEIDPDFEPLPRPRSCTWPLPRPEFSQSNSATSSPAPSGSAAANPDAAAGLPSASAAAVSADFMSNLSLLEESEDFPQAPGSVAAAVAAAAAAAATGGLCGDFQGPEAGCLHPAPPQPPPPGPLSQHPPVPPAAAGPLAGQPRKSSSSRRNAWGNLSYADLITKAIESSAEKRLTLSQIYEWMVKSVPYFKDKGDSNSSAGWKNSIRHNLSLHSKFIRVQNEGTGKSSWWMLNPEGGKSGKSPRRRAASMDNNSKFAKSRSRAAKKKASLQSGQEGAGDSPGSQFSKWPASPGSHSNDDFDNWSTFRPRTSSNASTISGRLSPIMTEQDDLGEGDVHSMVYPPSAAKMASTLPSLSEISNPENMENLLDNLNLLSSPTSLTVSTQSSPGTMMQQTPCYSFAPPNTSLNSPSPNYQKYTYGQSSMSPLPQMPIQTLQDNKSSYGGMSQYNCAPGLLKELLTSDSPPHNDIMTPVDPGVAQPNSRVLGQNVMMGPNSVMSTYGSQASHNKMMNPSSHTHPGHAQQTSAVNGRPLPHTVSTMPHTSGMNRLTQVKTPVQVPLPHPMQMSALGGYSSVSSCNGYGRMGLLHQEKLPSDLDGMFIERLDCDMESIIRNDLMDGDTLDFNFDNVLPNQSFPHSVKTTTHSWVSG

CC(C)(CCCCCCCCCCCCC(C)(C)C(=O)O)C(=O)O [M16αα, 2,2,15,15-tetramethyl-hexadecane-1,16-dioic acid]
plasma lipids (rats; hyperlipidemic animal models): normalization of plasma lipids | plasma triglycerides and cholesterol (rats; normolipidemic animals): decrease in plasma triglycerides and cholesterol | hypolipidemic activity (rats; rats): potent hypolipidemic agent | trough M16αα plasma concentrations [1]: increased progressively throughout the 28-day dosing period | mTORC1 activity [2]: suppressing | energy expenditure [3]: increased energy expenditure | insulin-sensitizing and glucose-lowering efficacy [4]: potent insulin-sensitizing and glucose-lowering efficacy | half-life (half-life in dogs): 65 h | lipoprotein production [5]: significant or full inhibition | transcriptional activity of SREBP [6]: suppressing | AMPK activity [7]: activating | gating of mitochondrial PTP [8]: induces low-conductance gating of mitochondrial PTP | transcriptional activity of FoxO1 (Forkhead box O1 (FoxO1)): suppressing | transcriptional activity of HNF4α [9]: suppressing | half-life (half-life in rats): 2.4 ± 0.6 h
